Test results reported in US12285397B2, “Use of (s)-3-amino-4-(difluoromethylenyl) cyclopent-1-ene-1-carboxylic acid and related compounds, (1S,3S)-3-amino-4-(difluoromethylidene) cyclopentane-1-carboxylic acid and vigabatrin in the treatment of developmental disorders” (Ovid Therapeutics Inc., priority 2018, dated 2025).

How the values were obtained:
Assay type in all cases: in vivo, mouse
Fmr1 KO2 mice [1] = test: Open field repetitive behavior: counter revolutions (CCW), Fmr1 KO2 mice
Excerpt: (§1) Mutant fmr1 knockout (KO) mice recapitulate the Fragile X syndrome (FXS) phenotype and represent a preclinical model for assessment of putative drug treatments. In this study three different mice models of FXS were used: Fmr1 KO1 is the original Fmr1 knockout animal that carries an insertion in exon 5. See, e.g., Bakker C E, et al., The Dutch-Belgian Fragile X Consortium, Fmr1 knockout mice: A model to study fragile X mental retardation. Cell. 1994; 78:23-33 It is a protein null, although Fmr1 mRNA is still present. It is backcrossed to the C57/B16 strain. Subsequently, these mice were bred into different background strains, such as the FVB inbred mouse strain. Fmr1 KO2 is a null allele at Fmr1 generated by deletion of the promoter and first exon of Fmr1. See, Mientjes, E J et al., The generation of a conditional Fmr1 knock out mouse model to study Fmrp function in vivo. Neurobiology of Disease (2006) 21(3): 549-555. It is both protein and mRNA null. Backcrossed to the C57/B16 strain. Genotyping was accomplished using TransnetXY Automated Genotyping (http://www.transnetyx.com/). TRANSNETYX, INC., 8110 Cordova Rd. Suite 119, Cordova, TN 38016, USA.
(§2) The mice were housed in plastic cages (35×30×12 cm), 5 in each and habituated to the animal facilities for at least a week before test. The room temperature (21±2° C.), relative humidity (55±5%), a 12-h light-dark cycle (lights on 7 a.m.-7 p.m.) and air exchange (16 times per h) were automatically controlled. The animals had free access to commercial food pellets and water. Testing was conducted during the light phase. Testing was conducted on Fmr1 knockout mice and their wild-type (WT) littermates. Ten mice per treatment group, 14 weeks of age, were used for behavioral experiments. Experiments were conducted in line with the requirements of the UK Animals (Scientific Procedures) Act, 1986.
(§3) Oral dosing was performed by using 1.5-in. curved, 20-gauge, stainless steel feeding needles with a 2.25-mm ball (Braintree Scientific, Braintree, MA). Each gavage treatment was given in 0.5% methyl cellulose (Methyl Cellulose M0512, Sigma-Aldrich, St Louis, MO) used as vehicle with or without treatment compounds. The same veterinarian, blinded to the treatment groups, performed the procedure, and documented animal reactions to oral gavage. Reactions considered to indicate stress were defined as excessive struggling during gavage or abnormal behavior after gavage (labored breathing, frozen stance, exaggerated jumping, shuddering, and hunched posture).
(§4) For experiments all mice were tested once in the same apparatus. Prior to testing, mice not in the study were placed in the apparatus for some minutes before the experiment. The apparatus was then cleaned with moist and dry tissues before testing each mouse. The aim was to create a low but constant background mouse odor for all experimental subjects. All experiments were conducted with the experimenters blind to genotype and drug treatment during all testing and data analysis. Separate investigators prepared and coded dosing solutions, allocated the mice to the study treatment groups, dosed the animals, and collected the behavioral data. Data were analyzed by one-way analysis of variance (ANOVA) followed by post-hoc comparisons where appropriate using Tukey's Multiple Comparison Test. Data are represented as the mean and standard error of the mean (SEM).
(§5) 2. Open Field Repetitive Behaviors (stereotypies: anticlockwise circling (aka counter revolutions) (CCW) and self grooming). Fmr1 KO2 mice display the autism-like phenotypes of repetitive behaviors like CCW, self grooming and stereotypy that typically involves behaviors such as head bobbing. […]

Fmr1 KO2 mice [2] = test: Open field repetitive behavior: self grooming, Fmr1 KO2 mice; parameters: Effect on abnormal self grooming phenotype (FIG. 3): dose or concentration left out as unconfirmed
Excerpt: as §1, §2, §3, §4, §5

Fmr1 KO2 mice [3] = test: Tests of daily living (nesting), Fmr1 KO2 mice
Excerpt: as §1, §2, §3, §4
3. Tests of daily living (nesting). Species-typical behaviors offer easy ways to test for hippocampal dysfunction. The hippocampus is vital for the performance of species-typical tasks, or “activities of daily living” of mice. […]

Fmr1 KO1 mice = test: Tests of daily living (nesting), Fmr1 KO1 mice
Excerpt: as §1, §2, §3, §4
3. Tests of daily living (Nesting): FIG. 11 is a bar graph illustrating nest building quality by wild-type mice administered 0.5% methyl cellulose vehicle, Fmr1 KO1 mice administered 0.5% methyl cellulose, Fmr1 KO1 mice administered (S)-3-amino-4-(difluoromethylenyl) cyclopent-1-ene-1-carboxylic acid 0.01 mg/kg, Fmr1 KO1 mice administered (S)-3-amino-4-(difluoromethylenyl) cyclopent-1-ene-1-carboxylic acid 0.05 mg/kg, and Fmr1 KO1 mice administered (S)-3-amino-4-(difluoromethylenyl) cyclopent-1-ene-1-carboxylic acid 0.1 mg/kg.

[4] = test system: Fmr1 KO1 transgenic mice in an FVB background; test: Audiogenic seizures (AGS), Fmr1 KO1 mice in FVB background; conditions: for Incidence / Respiratory arrest / Seizure / Wild running: audio stimulus 60 seconds at 124 db
Procedure: 4. Audiogenic Seizures (AGS) are reflex seizures generated by loud noises in genetically predisposed mice. The Fmr1 KO1 mice display audiogenic seizures depending on age and background strain, the Fmr1 KO1 mouse on the FVB background is characterized by an increased AGS susceptibility at all ages and is considered a good animal model for epilepsy. The effect of (S)-3-amino-4-(difluoromethylenyl) cyclopent-1-ene-1-carboxylic acid was tested on AGS Fmr1 KO1 transgenic mice in an FVB background. Observable criteria are: 1. normal behavior, 2. wild running, 3. seizure, and 4. respiratory arrest.
(S)-3-amino-4-(difluoromethylenyl) cyclopent-1-ene-1-carboxylic acid was administered to Fmr1 KO1 mice, males, age 2 months in the following amounts: 0.01 mg/kg, 0.05 mg/kg, and 0.1 mg/kg. Positive controls were administered 2-Methyl-6-(phenylethynyl)pyridine (MPEP), a mGluR5 antagonist, 30 mg/kg by i.p. and tested 20 minutes after injection. Audio stimulus was administered continuously for 60 seconds at 124 db.

N[C@H]1C=C(C(=O)O)CC1=C(F)F [Compound, (S)-3-Amino-4-(difluoromethylenyl)cyclopent-1-ene-1-carboxylic acid]
Open field counter revolutions (CCW), WT-Veh vs. KO2-Compound: Significant? (Fmr1 KO2 mice [1]; 0.01 mg/Kg PO QD seven days): Yes
Open field counter revolutions (CCW), WT-Veh vs. KO2-Compound: Significant? (Fmr1 KO2 mice [1]; 0.05 mg/Kg PO QD seven days): No
Open field counter revolutions (CCW), WT-Veh vs. KO2-Compound: Summary (Fmr1 KO2 mice [1]; 0.05 mg/Kg PO QD seven days): ns
Open field counter revolutions (CCW), WT-Veh vs. KO2-Compound: Significant? (Fmr1 KO2 mice [1]; 0.1 mg/Kg PO QD seven days): No
Open field counter revolutions (CCW), WT-Veh vs. KO2-Compound: Summary (Fmr1 KO2 mice [1]; 0.1 mg/Kg PO QD seven days): ns
Effect on CCW revolutions phenotype (FIG. 2) (Fmr1 KO2 mice [1]; 0.05 and 0.1 mg/Kg): rescued
Effect on abnormal self grooming phenotype (FIG. 3) (Fmr1 KO2 mice [2]): rescued
Time spent grooming (self grooming), WT-Veh vs. KO2-Compound: Significant? (Fmr1 KO2 mice [2]; 0.01 mg/Kg PO QD seven days): Yes
Time spent grooming (self grooming), WT-Veh vs. KO2-Compound: Significant? (Fmr1 KO2 mice [2]; 0.05 mg/Kg PO QD seven days): No
Time spent grooming (self grooming), WT-Veh vs. KO2-Compound: Summary (Fmr1 KO2 mice [2]; 0.05 mg/Kg PO QD seven days): ns
Time spent grooming (self grooming), WT-Veh vs. KO2-Compound: Significant? (Fmr1 KO2 mice [2]; 0.1 mg/Kg PO QD seven days): No
Time spent grooming (self grooming), WT-Veh vs. KO2-Compound: Summary (Fmr1 KO2 mice [2]; 0.1 mg/Kg PO QD seven days): ns
Nesting, WT-Veh vs. KO2-Compound: Significant? (Fmr1 KO2 mice [3]; 0.01 mg/Kg PO QD seven days): Yes
Nesting, WT-Veh vs. KO2-Compound: Significant? (Fmr1 KO2 mice [3]; 0.05 mg/Kg PO QD seven days): No
Nesting, WT-Veh vs. KO2-Compound: Summary (Fmr1 KO2 mice [3]; 0.05 mg/Kg PO QD seven days): ns
Nesting, WT-Veh vs. KO2-Compound: Significant? (Fmr1 KO2 mice [3]; 0.1 mg/Kg PO QD seven days): No
Nesting, WT-Veh vs. KO2-Compound: Summary (Fmr1 KO2 mice [3]; 0.1 mg/Kg PO QD seven days): ns
Effect on poorer nest building phenotype (FIG. 5) (Fmr1 KO2 mice [3]; 0.05 and 0.1 mg/Kg): rescued
Nesting, WT-Veh vs. KO1-Compound: Significant? (Fmr1 KO1 mice; 0.01 mg/Kg PO QD seven days): Yes
Nesting, WT-Veh vs. KO1-Compound: Significant? (Fmr1 KO1 mice; 0.05 mg/Kg PO QD seven days): No
Nesting, WT-Veh vs. KO1-Compound: Summary (Fmr1 KO1 mice; 0.05 mg/Kg PO QD seven days): ns
Nesting, WT-Veh vs. KO1-Compound: Significant? (Fmr1 KO1 mice; 0.1 mg/Kg PO QD seven days): No
Nesting, WT-Veh vs. KO1-Compound: Summary (Fmr1 KO1 mice; 0.1 mg/Kg PO QD seven days): ns
Effect on nesting behavior (FIG. 11) (Fmr1 KO1 mice; 0.05 and 0.1 mg/Kg): rescues poor nesting behavior
Incidence ([4]; 0.01 mg/kg): 100%
Respiratory arrest ([4]; 0.01 mg/kg): 7/10
Seizure ([4]; 0.01 mg/kg): 10/10
Wild running ([4]; 0.01 mg/kg): 10/10
Incidence ([4]; 0.05 mg/kg): 100%
Respiratory arrest ([4]; 0.05 mg/kg): 5/10
Seizure ([4]; 0.05 mg/kg): 8/10
Wild running ([4]; 0.05 mg/kg): 10/10
Audiogenic seizure susceptibility reduced to ([4]; 0.1 mg/Kg, Fmr1 KO1 mice (FVB background)): 40%
Incidence ([4]; 0.1 mg/kg): 40%
Respiratory arrest ([4]; 0.1 mg/kg): 4/10
Seizure ([4]; 0.1 mg/kg): 5/10
Wild running ([4]; 0.1 mg/kg): 4/10
